Values of other authors, collected in US20070196465A1, “Treatment with dihydropyridine calcium channel blockers and omega-3 fatty acids and a combination product thereof” (priority 2005, published 2007).

How the values were obtained:
heart = conditions: Finkel et al. 1992
L-type Ca^2+ channel = conditions: dihydropyridine alone
cells = conditions: dihydropyridine alone

SMILES	inotropic effect (heart)	effect on peak L-type Ca2+ channel current, cytosolic Ca2+ and cell contraction (L-type Ca^2+ channel)	effect on calcium influx / cytosolic free calcium and cell contraction (cells)
COC(=O)C1=C(C)NC(C)=C([N+](=O)[O-])C1c1ccccc1C(F)(F)F (stereo not shown) [Bay K 8644]	concentration-dependent positive inotrope	significantly increases peak L-type Ca^2+ channel current, cytosolic Ca^2+, and cell contraction	increases in calcium influx and the contracture of cells
CCCCC/C=C\C/C=C\C/C=C\C/C=C\CCCC(=O)O [arachidonic acid]	concentration-dependent negative inotropes		
